In patent US7354922B2, “Bridged ring NK1 antagonists” (Schering Corporation, priority 2004, dated 2008):

biological target: NK1 receptor (Homo sapiens, UniProt P25103); experiment: NK1 receptor binding (inhibition of Substance P binding, Ki by Chang-Prusoff equation)
From the text: The in vitro and in vivo NK1, NK2 and NK3 activities of the compounds of Formula (I) can be determined by various procedures known in the art, such as a test for their ability to inhibit the activity of the NK1 agonist Substance P. The percent inhibition of neurokinin agonist activity is the difference between the percent of maximum specific binding (“MSB”) and 100%. The percent of MSB is defined by the following equation, wherein “dpm” represents “disintegrations per minute”:
[formula] The concentration at which the compound produces 50% inhibition of binding is then used to determine an inhibition constant (“Ki”) using the Chang-Prusoff equation.
The activities (potencies) for the compounds of the invention are determined by measuring their Ki values. […] Even more preferred are compounds having average Ki values of from 0.05 nM to about 5 nM for the NK1 receptor. Especially preferred compounds have NK1 average Ki values of from 0.05 nM to about 1 nM. Even more especially preferred compounds have NK1 average Ki values of from 0.05 nM to about 0.2 nM.

Sequence of NK1 receptor (P25103 whole entry, species assumed): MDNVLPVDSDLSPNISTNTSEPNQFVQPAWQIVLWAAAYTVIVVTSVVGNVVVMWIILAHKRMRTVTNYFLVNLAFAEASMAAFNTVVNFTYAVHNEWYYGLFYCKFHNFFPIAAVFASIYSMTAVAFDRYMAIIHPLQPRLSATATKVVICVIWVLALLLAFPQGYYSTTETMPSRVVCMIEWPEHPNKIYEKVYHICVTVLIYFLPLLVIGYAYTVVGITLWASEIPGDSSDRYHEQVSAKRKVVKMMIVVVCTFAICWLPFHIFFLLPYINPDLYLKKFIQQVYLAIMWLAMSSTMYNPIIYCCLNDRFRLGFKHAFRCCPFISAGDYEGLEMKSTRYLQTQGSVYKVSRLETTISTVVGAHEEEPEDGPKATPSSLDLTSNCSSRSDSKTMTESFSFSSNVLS

SMILES	Ki
C[C@@H](OC[C@@]1(c2ccccc2)CC[C@]2(CO)CN1CC(=O)N2)c1cc(C(F)(F)F)cc(C(F)(F)F)c1 [Example 3a]	0.15 nM
C[C@@H](OC[C@@]1(c2ccccc2)CC[C@@H]2CN1CCN2)c1cc(C(F)(F)F)cc(C(F)(F)F)c1 [Example 4]	0.11 nM
C[C@@H](OC[C@@]1(c2ccccc2)CC[C@@H]2CN1CCN2C(N)=O)c1cc(C(F)(F)F)cc(C(F)(F)F)c1 [Example 5]	0.1 nM
C[C@@H](OC[C@@]1(c2ccccc2)CC[C@]2(CC#N)CN1CC(=O)N2)c1cc(C(F)(F)F)cc(C(F)(F)F)c1 [Example 8]	0.12 nM
C[C@@H](OC[C@@]1(c2ccccc2)CC[C@]2(CC(N)=O)CN1CC(=O)N2)c1cc(C(F)(F)F)cc(C(F)(F)F)c1 [Example 16]	0.16 nM
C[C@@H](OC[C@@]1(c2ccccc2)CC[C@]2(Cn3cnnn3)CN1CC(=O)N2)c1cc(C(F)(F)F)cc(C(F)(F)F)c1 [Example 20]	0.15 nM
C[C@@H](OC[C@@]1(c2ccccc2)CC[C@]2(CN3CCCCC3=O)CN1CC(=O)N2)c1cc(C(F)(F)F)cc(C(F)(F)F)c1 [Example 30]	0.11 nM
C[C@@H](OC[C@@]1(c2ccccc2)CC[C@]2(CNC3CC3)CN1CC(=O)N2)c1cc(C(F)(F)F)cc(C(F)(F)F)c1 [Example 32]	0.11 nM
C[C@@H](OC[C@@]1(c2ccccc2)CC[C@]2(CNS(C)(=O)=O)CN1CC(=O)N2)c1cc(C(F)(F)F)cc(C(F)(F)F)c1 [Example 38]	0.12 nM
C[C@@H](OC[C@@]1(c2ccccc2)CC[C@@]2(NC(N)=O)CCCN1C2)c1cc(C(F)(F)F)cc(C(F)(F)F)c1 [Example 47]	0.12 nM
C[C@@H](OC[C@@]1(c2ccccc2)CC[C@@]23COCCN2C(=O)CN1C3)c1cc(C(F)(F)F)cc(C(F)(F)F)c1 [Example 51]	0.12 nM

Continued by falling Ki, values first:

Ki	SMILES
0.16 nM	C[C@@H](OC[C@@]1(c2ccccc2)CC[C@]2(CO)CN1CC(=O)O2)c1cc(C(F)(F)F)cc(C(F)(F)F)c1 [Example 49]
0.13 nM	COC[C@]12CC[C@@](CO[C@H](C)c3cc(C(F)(F)F)cc(C(F)(F)F)c3)(c3ccccc3)N(CC(=O)N1)C2 [Example 12]
0.13 nM	CC(C)=NOC[C@]12CC[C@@](CO[C@H](C)c3cc(C(F)(F)F)cc(C(F)(F)F)c3)(c3ccccc3)N(CC(=O)N1)C2 [Example 33]
0.12 nM	C[C@@H](OC[C@@]1(c2ccccc2)CC[C@]2(CO)CN1CCN2)c1cc(C(F)(F)F)cc(C(F)(F)F)c1 [Example 57]
0.09 nM	C[C@@H](OC[C@@]1(c2ccccc2)CC[C@]2(COC(N)=O)CN1CC(=O)N2)c1cc(C(F)(F)F)cc(C(F)(F)F)c1 [Example 15]
0.07 nM	CSC[C@]12CC[C@@](CO[C@H](C)c3cc(C(F)(F)F)cc(C(F)(F)F)c3)(c3ccccc3)N(CC(=O)N1)C2 [Example 34]
